In ChEMBL document CHEMBL3797127, “Design, synthesis and evaluation of pyrrolo[2,3-d]pyrimidine-phenylamide hybrids as potent Janus kinase 2 inhibitors” (Bioorg Med Chem Lett, 2016):

Tests used:
[1] = biological target: T1, Tyrosine-protein kinase JAK3 (Homo sapiens, UniProt P52333)
T1 sequence (P52333 whole entry): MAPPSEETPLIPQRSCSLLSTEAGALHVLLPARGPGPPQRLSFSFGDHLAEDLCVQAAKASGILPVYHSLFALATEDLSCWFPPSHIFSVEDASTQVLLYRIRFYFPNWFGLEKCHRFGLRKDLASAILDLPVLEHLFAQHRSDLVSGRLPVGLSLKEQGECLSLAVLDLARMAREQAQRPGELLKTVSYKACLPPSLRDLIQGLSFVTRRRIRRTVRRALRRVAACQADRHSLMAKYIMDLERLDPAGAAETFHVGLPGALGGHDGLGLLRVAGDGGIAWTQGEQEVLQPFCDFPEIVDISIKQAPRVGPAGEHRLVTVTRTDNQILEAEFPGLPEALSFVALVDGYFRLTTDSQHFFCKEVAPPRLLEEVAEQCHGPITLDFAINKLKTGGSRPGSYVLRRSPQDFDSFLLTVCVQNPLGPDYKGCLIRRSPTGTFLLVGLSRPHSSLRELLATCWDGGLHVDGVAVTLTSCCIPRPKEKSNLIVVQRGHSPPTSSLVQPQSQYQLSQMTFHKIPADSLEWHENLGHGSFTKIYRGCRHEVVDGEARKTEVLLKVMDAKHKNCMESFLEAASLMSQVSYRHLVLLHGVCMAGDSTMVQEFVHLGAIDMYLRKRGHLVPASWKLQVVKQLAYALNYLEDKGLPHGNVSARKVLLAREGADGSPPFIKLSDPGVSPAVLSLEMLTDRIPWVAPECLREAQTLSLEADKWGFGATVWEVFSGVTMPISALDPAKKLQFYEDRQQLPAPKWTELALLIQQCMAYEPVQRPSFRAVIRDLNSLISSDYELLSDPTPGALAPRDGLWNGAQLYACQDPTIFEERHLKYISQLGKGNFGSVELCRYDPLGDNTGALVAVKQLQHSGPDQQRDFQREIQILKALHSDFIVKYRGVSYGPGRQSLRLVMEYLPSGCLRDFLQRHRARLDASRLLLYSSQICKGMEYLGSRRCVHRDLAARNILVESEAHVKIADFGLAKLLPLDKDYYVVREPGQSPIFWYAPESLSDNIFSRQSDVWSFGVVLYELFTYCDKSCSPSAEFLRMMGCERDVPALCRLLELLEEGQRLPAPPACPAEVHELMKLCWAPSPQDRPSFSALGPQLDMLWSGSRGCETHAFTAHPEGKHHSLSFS
Description: Inhibition of recombinant human GST-tagged JAK3 expressed in baculovirus expression system using Z'-LYTE Try6 peptide as substrate incubated for 1 hr by Z'-LYTE assay

in vivo [2] = conditions: Sprague-Dawley, rat, iv, 4 mg/kg
in vivo [3] = conditions: Sprague-Dawley, rat, po, 10 mg/kg
in vivo [4] = conditions: Sprague-Dawley, rat, po, 10 mg/kg; remark: listed apart in the source
in vivo [5] = conditions: Sprague-Dawley, rat, iv, 4 mg/kg; remark: listed apart in the source
Description: Half life in Sprague-Dawley rat at 4 mg/kg, iv administered as bolus dose

in vivo [6] = conditions: Sprague-Dawley, rat, po, 10 mg/kg; remark: listed apart in the source
in vivo [7] = conditions: Sprague-Dawley, rat, po, 10 mg/kg; remark: listed apart in the source
in vivo [8] = conditions: Sprague-Dawley, rat, po, 10 mg/kg; remark: listed apart in the source
Description: Half life in Sprague-Dawley rat at 10 mg/kg, po administered through gavage

in vivo [9] = conditions: Sprague-Dawley, rat, iv, 4 mg/kg; remark: listed apart in the source
in vivo [10] = conditions: Sprague-Dawley, rat, iv, 4 mg/kg; remark: listed apart in the source
in vivo [11] = conditions: Sprague-Dawley, rat, iv, 4 mg/kg; remark: listed apart in the source

For `Cn1c(C(=O)NCCN2CCCC2)cc2c(-c3ccc(NC(=O)[C@@H]4CCCN4C(=O)OC(C)(C)C)cc3)ncnc21`, the IC50 [1] was 716 nM.

`Cn1c(C(=O)NCCCN2CCOCC2)cc2c(-c3ccc(NC(=O)C(C)(C)C)cc3)ncnc21` showed an AUC(0-t) at 24 h (in vivo [2]) of 19700 ng·h/mL, a Cmax (in vivo [3]) of 6140 ng/mL and a bioavailability (in vivo [4]) of 73.6%. The half-life (in vivo [5]) was 2.09 h, the AUC(0-t) at 24 h (in vivo [6]) was 36300 ng·h/mL and the Tmax (in vivo [7]) was 4 h. It also gave an IC50 [1] of 584 nM, a half-life (in vivo [8]) of 2.32 h and a Vd (in vivo [9]) of 0.612 L/kg. For the same compound, the clearance (in vivo [10]) was 3.3 mL/min/kg and the Cmax (in vivo [11]) was 9730 ng/mL.

With `Cn1c(C(=O)NCCCN2CCOCC2)cc2c(-c3ccc(NC(=O)[C@@H]4CCCN4C(=O)OC(C)(C)C)cc3)ncnc21` the IC50 [1] was 507 nM.

Work on `Cn1c(C(=O)NCCN2CCCC2)cc2c(-c3ccc(NC(=O)C(C)(C)C)cc3)ncnc21` yielded an IC50 [1] of 953 nM.
